# According to patent publication US10821084B2, “Dihydromyricetin compositions” (REMY BIOSCIENCES, INC., priority 2018, dated 2020):
# Key:
# [1] = In vitro transdermal flux of cannabinoids from monolithic patches, Franz Diffusion Cell method; assay type: in vitro ADME, human; conditions: for stimulation of cumulative CBD flux versus no dihydromyricetin: 15% CBD patch
# From the text: Transdermal flux of cannabinoids can be measured In Vitro through human cadaver epidermis using Franz Diffusion Cell Method. Samples of 300 microliters can be taken of the receiving solution and analyzed by HPLC for amount ofcannabinoid substance that passed through the epidermis.
# Flux is preferably measured using human cadaver skin with a Franz Diffusion Cell (see, Kristof (2017) Feasibility of transdermal delivery of Cyclosporine A using plasma discharges. Biointerphases. 12:02B402). Flux can be measured where the temperature of the Franz Diffusion Cell (and solutions inside the Franz Diffusion Cell) are held constant at about 17 degrees C., about 20 degrees C., about 23 degrees C. (“room temperature”), about 26 degrees C., about 30 degrees C., about 33 degrees C., about 37 degrees C. (mammalian body temperature), about 40 degrees C., and so on.
# For each figure, the number of hours that flux was allowed to occur was twentyfour hours (24 hours). The data for each figure used a monolithic patch. Composition of the patch: PIB adhesive with 15% of CBD or 8% THC. Patch construction was adhesive layer attached to a backing polyethylene foam film. No additional overlays were used. Experiments were done using Franz Diffusion Cells using human cadaver skin.
# [2] = patch measuring 20 cm^2, PIB adhesive and 10% CBD; cited from earlier work
compound,measurement,setting,value
"C=C(C)[C@@H]1CCC(C)=C[C@H]1c1c(O)cc(CCCCC)cc1O [CBD, cannabidiol]",control net flux of CBD,"[1]; control monolithic patch without any dihydromyricetin, 15% CBD, over a period of 24 hours",about 155 micrograms CBD per square centimeter of skin
same,cumulative transdermal flux of CBD,"[1]; monolithic PIB patch, 15% CBD, 0% dihydromyricetin, 24 hours, FIG. 2 first bar",about 155 micrograms/cm^2
same,cumulative transdermal flux of CBD,"[1]; monolithic PIB patch, 15% CBD, 3% dihydromyricetin, 24 hours, FIG. 2 second bar",about 195 micrograms/cm^2
same,cumulative transdermal flux of CBD,"[1]; monolithic PIB patch, 15% CBD, 5% dihydromyricetin, 24 hours, FIG. 2 third bar",about 230 micrograms/cm^2
same,net flux of CBD,"[1]; monolithic PIB patch, 15% CBD, with dihydromyricetin, over a period of 24 hours",at least 195 micrograms CBD per square centimeter of skin
same,daily systemic dose of CBD deliverable,[2],about 5 mg
O=C1c2c(O)cc(O)cc2O[C@H](c2cc(O)c(O)c(O)c2)[C@H]1O [dihydromyricetin],stimulation of cumulative THC flux versus no dihydromyricetin,"[1]; 8% THC patch, 5% dihydromyricetin (third histogram bar), 24 hours",about 61%
same,stimulation of cumulative CBD flux versus no dihydromyricetin,"[1]; 3% dihydromyricetin, 24 hours",about 25%
same,stimulation of cumulative CBD flux versus no dihydromyricetin,"[1]; 5% dihydromyricetin, 24 hours",about 48%
same,increase of CBD flux through skin (factor),"[1]; dermal patch formulation that includes CBD, human cadaver skin",three-fold
"CCCCCc1cc(O)c2c(c1)OC(C)(C)[C@@H]1CCC(C)=C[C@@H]21 [THC, tetrahydrocannabinol]",control net flux of THC,"[1]; control monolithic patch without any dihydromyricetin, 8% THC, over a period of 24 hours",about 90 micrograms THC per square centimeter of skin
same,cumulative transdermal flux of THC,"[1]; monolithic PIB patch, 8% THC, 0.5% dihydromyricetin, 24 hours, FIG. 1 third bar",about 145 micrograms/cm^2
same,cumulative transdermal flux of THC,"[1]; monolithic PIB patch, 8% THC, 3% oleic acid, 24 hours, FIG. 1 second bar",about 110 micrograms/cm^2
same,cumulative transdermal flux of THC,"[1]; monolithic PIB patch, 8% THC, no enhancer, 24 hours, FIG. 1 first bar",about 90 micrograms/cm^2
same,net flux of THC,"[1]; monolithic PIB patch, 8% THC, with dihydromyricetin, over a period of 24 hours",at least 145 micrograms THC per square centimeter of skin
